These results are taken from ChEMBL document CHEMBL5579836, “Extensive targeting of chemical space at the prime side of ketoamide inhibitors of rhomboid proteases by branched substituents empowers their selectivity and potency” (Eur J Med Chem, 2024).

By EC50 is commonly meant the concentration giving half of the maximal effect. Broadly, the IC50 is the concentration at which inhibition is half-maximal.

Experiment [1] concerns the target T1, Rhomboid protease GlpG (Escherichia coli (strain K12), UniProt P09391).
T1 sequence (P09391 whole entry): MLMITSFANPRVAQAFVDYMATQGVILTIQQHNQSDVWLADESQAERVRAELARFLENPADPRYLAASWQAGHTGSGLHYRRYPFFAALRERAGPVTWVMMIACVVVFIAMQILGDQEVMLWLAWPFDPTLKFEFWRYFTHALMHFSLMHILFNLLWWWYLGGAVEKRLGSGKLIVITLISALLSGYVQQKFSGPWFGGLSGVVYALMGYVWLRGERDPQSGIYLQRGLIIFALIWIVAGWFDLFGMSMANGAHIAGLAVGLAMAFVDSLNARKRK
Description: Inhibition of GlpG in wild-type Escherichia coli MC4100 using MBP-Flag-LacYTMD2-Trx as substrate.

Experiment [2] has as its target T1, Rhomboid protease GlpG. Description: Inhibition of Escherichia coli GlpG extracted from Escherichia coli C43(DE3) using KSp96 as substrate incubated for 1 hr by fluorescence based assay. As to conditions: for Ki: read-out: Ki(app).
Experiment [3] is described as follows: Inhibition of Strep-tagged recombinant human RHBDL2 extracted from Expi293 cells using KSp118 as substrate incubated for 1 hr by fluorescence based assay. Format: cell-free.
Experiment [4] in a line: Selectivity index, ratio of IC50 for rhomboid (unknown origin) to IC50 for Escherichia coli GlpG extracted from Escherichia coli C43(DE3) using KSp96 as substrate.
Experiment [5] in a line: Selectivity index, ratio of IC50 for rhomboid (unknown origin) to IC50 for recombinant human PARL using KSp106 as substrate.
The nature of experiment [6]: Selectivity index, ratio of IC50 for rhomboid (unknown origin) to IC50 for Strep-tagged recombinant human RHBDL2 extracted from Expi293 cells using KSp118 as substrate.
The target of experiment [7] is T2, Presenilin-associated rhomboid-like protein, mitochondrial (Homo sapiens, UniProt Q9H300).
T2 sequence (Q9H300 whole entry): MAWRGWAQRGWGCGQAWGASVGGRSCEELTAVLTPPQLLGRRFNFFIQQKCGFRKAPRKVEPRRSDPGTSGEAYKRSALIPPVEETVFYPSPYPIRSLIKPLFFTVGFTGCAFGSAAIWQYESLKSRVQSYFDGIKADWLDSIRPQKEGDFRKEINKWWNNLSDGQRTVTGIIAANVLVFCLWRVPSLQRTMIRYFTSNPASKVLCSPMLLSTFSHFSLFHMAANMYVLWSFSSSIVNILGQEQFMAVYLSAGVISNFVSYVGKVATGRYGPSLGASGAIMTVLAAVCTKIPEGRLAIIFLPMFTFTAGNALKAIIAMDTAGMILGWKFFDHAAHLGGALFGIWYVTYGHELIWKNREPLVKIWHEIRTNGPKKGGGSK
Description: Inhibition of tetracycline-inducible FLAG-tagged human PARL stably transfected in HEK293T harboring FITR/PARL KO. The format is cell-based.

Starred links: 1 amine or outer side, 2 acyl side, 3 side chain; linkers in the order of their positions; H or OH if unused. Non-standard residues stand in square brackets, D forms with d. Residues, ends and D or L forms follow the SMILES beside them. *: point of attachment. Pheol(OBn) = c1ccc(COC[C@H](Cc2ccccc2)N*)cc1; NH(4-phenylbutyl) = c1ccc(CCCCN*)cc1; X1 = C[C@H](N[*:1])C(=O)C(=O)[*:2]

As to `C[C@H](NC(=O)[C@H](Cc1c[nH]cn1)NC(=O)[C@H](CCCNC(=N)N)NC(=O)CCc1ccccc1)C(=O)C(=O)N[C@H](COCc1ccccc1)Cc1ccccc1`, on Rhomboid protease GlpG [1], the EC50 turned out to be 424 nM. Further, at Rhomboid protease GlpG [2], the IC50 worked out at 2 nM.
Turning to `CC(C)CC(=O)N[C@H](C(=O)N[C@@H](C)C(=O)N[C@@H](CCCCN)C(=O)N[C@@H](C)C(=O)C(=O)NCCCCc1ccccc1)C(C)C`, the IC50 in experiment [3] was 236 nM.
For `CCCCc1ccc(OCC[C@H](Cc2ccccc2)NC(=O)C(=O)[C@H](C)NC(=O)[C@H](Cc2c[nH]cn2)NC(=O)[C@H](CCCNC(=N)N)NC(=O)[C@@H](NC(C)=O)C(C)C)cc1`, a half-maximal effect on Rhomboid protease GlpG [1] (EC50) was put at 131 nM. Besides, on Rhomboid protease GlpG [2], inhibition was half-maximal at 1.9 nM (IC50) and the Ki is 0.7 nM.
As to `CC(=O)N[C@H](C(=O)N[C@@H](CCCNC(=N)N)C(=O)N[C@@H](Cc1c[nH]cn1)C(=O)N[C@@H](C)C(=O)C(=O)N[C@H](COCc1ccccc1)Cc1ccccc1)C(C)C`, the 50% effective concentration (EC50) at Rhomboid protease GlpG [1] came to 173 nM. For the same molecule, on Rhomboid protease GlpG [2], the midpoint of inhibition, the IC50, lay at 2.5 nM and the Ki came out at 1.4 nM. For the same molecule, the IC50 in experiment [3] was 5390 nM.
Take `CC(=O)N[C@H](C(=O)N[C@@H](CCCNC(=N)N)C(=O)N[C@@H](Cc1c[nH]cn1)C(=O)N[C@@H](C)C(=O)C(=O)NCCCCc1ccccc1)C(C)C`: at Rhomboid protease GlpG [1], a half-maximal effect (EC50) was put at 1470 nM. In addition, the IC50 against Rhomboid protease GlpG [2] turned out to be 44.4 nM; in experiment [3] it was 6210 nM.
Take `CC(=O)N[C@@H](C)C(=O)N[C@H](C(=O)N[C@@H](Cc1ccccc1)C(=O)N[C@@H](CC(C)C)C(=O)N[C@@H](C)C(=O)C(=O)N[C@H](COCc1ccccc1)Cc1ccccc1)C(C)C` (Ac-AVFL[X1]-{Pheol(OBn)}): the IC50 worked out at 14.8 nM against Rhomboid protease GlpG [2] and 55500 nM in experiment [3].
With `CC(=O)N[C@H](C(=O)N[C@@H](CCCNC(=N)N)C(=O)N[C@@H](Cc1c[nH]cn1)C(=O)N[C@@H](C)C(=O)C(=O)NCCc1ccccc1)C(C)C`, the response at Rhomboid protease GlpG [1] was half-maximal at 1610 nM (EC50). The molecule also registered an IC50 against Rhomboid protease GlpG [2] of 56.1 nM.
For `CC(=O)N1CCC[C@H]1C(=O)N[C@H](C(=O)N[C@@H](C)C(=O)N[C@@H](CCCCN)C(=O)N[C@@H](C)C(=O)C(=O)N[C@H](COCc1ccccc1)Cc1ccccc1)C(C)C` (Ac-PVAK[X1]-{Pheol(OBn)}), the IC50 was determined as 5.6 nM at Rhomboid protease GlpG [2] and 768 nM in experiment [3].
Taken in the same sequence, the figures for `CC(=O)N1CCC[C@H]1C(=O)N[C@H](C(=O)N[C@@H](C)C(=O)N[C@@H](CCCCN)C(=O)N[C@@H](C)C(=O)C(=O)NCCCCc1ccccc1)C(C)C` (Ac-PVAK[X1]-{NH(4-phenylbutyl)}) were 330 nM and 712 nM.
`CC(C)CC(=O)N[C@@H](CCCNC(=N)N)C(=O)N[C@@H](Cc1c[nH]cn1)C(=O)N[C@@H](C)C(=O)C(=O)N[C@H](COCc1ccccc1)Cc1ccccc1` yielded an EC50 at Rhomboid protease GlpG [1] of 337 nM. At Rhomboid protease GlpG [2], the IC50 is 2.3 nM.
In turn, `CC(=O)N[C@H](C(=O)N[C@@H](CCCNC(=N)N)C(=O)N[C@@H](Cc1c[nH]cn1)C(=O)N[C@@H](C)C(=O)C(=O)NC(CCCc1ccccc1)Cc1ccccc1)C(C)C` (mixture of isomers) yielded an EC50 on Rhomboid protease GlpG [1] of 123 nM. In addition, on Rhomboid protease GlpG [2], inhibition was half-maximal at 2.3 nM (IC50) and the Ki amounted to 1.3 nM.
On to `CC(=O)N[C@@H](C)C(=O)N[C@H](C(=O)N[C@@H](Cc1ccccc1)C(=O)N[C@@H](CC(C)C)C(=O)N[C@@H](C)C(=O)C(=O)NCCCCc1ccccc1)C(C)C` (Ac-AVFL[X1]-{NH(4-phenylbutyl)}), for which the Ratio IC50 was 10.6 in experiment [4], 1 in experiment [5] and 1150 in experiment [6]. The molecule further gave an EC50 in experiment [7] of 445 nM. Moreover, the IC50 on Rhomboid protease GlpG [2] worked out at 300 nM; in experiment [3], 32800 nM.
